Assay results published in ChEMBL document CHEMBL5096169, “Recent progress in agents targeting polo-like kinases: Promising therapeutic strategies” (Eur J Med Chem, 2021).
“And” between values parts separate entries of the source, which are not always exact repeats. Identical values can stand only once.

Experiments:
[1] = tested on: KG-1; assay: Antiproliferative activity against human KG-1 cells assessed as inhibition of cell proliferation incubated for 24 hrs by CCK-8 assay; assay type: functional, cell-based; conditions: KG-1, 24 h
[2] = tested on: MOLM-13; assay: Antiproliferative activity against human MOLM-13 cells assessed as inhibition of cell proliferation incubated for 24 hrs by CCK-8 assay; assay type: functional, cell-based; conditions: MOLM-13, 24 h
[3] = target: T1, Serine/threonine-protein kinase PLK1 (Homo sapiens, UniProt P53350); assay: Binding affinity to human PLK1-PBD (326 to 603 residues) expressed in Escherichia coli BL21(DE3) rosetta cells by microscale thermophoresis analysis
T1 sequence (P53350 whole entry, the tested form may be a part): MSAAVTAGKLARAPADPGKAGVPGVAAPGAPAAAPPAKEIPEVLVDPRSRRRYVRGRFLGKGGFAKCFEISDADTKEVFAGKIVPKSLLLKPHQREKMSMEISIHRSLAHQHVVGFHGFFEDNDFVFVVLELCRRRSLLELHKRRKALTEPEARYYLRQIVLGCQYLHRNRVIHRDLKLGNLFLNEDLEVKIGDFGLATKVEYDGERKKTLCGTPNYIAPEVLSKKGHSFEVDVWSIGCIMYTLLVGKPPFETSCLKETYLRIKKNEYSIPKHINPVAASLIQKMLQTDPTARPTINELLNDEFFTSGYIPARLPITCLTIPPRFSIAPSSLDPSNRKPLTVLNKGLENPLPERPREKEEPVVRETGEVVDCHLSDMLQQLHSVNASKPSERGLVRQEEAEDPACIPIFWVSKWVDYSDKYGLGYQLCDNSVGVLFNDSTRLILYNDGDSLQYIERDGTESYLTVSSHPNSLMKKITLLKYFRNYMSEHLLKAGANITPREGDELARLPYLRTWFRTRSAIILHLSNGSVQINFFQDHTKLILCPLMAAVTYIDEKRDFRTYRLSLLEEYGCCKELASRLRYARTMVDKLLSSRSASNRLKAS

[4] = target: T1, Serine/threonine-protein kinase PLK1; assay: Inhibition of human PLK1-PBD (326 to 603 residues) expressed in Escherichia coli BL21(DE3) rosetta cells using 5-carboxyfluorescein-GPMQSpTPLNG-OH as substrate preincubated for 1 hr followed by substrate addition and measured after 1 to 2 hr by fluorescence polarization assay
[5] = target: T1, Serine/threonine-protein kinase PLK1; assay: Inhibition of PLK1 (unknown origin)
[6] = target: Serine/threonine-protein kinase PLK3 (Homo sapiens, UniProt Q9H4B4); assay: Inhibition of recombinant N-terminal MBP-tagged human PLK3-PBD expressed in Escherichia coli BL21(DE3) rosetta cells using 5-carboxyfluorescein-GPLATSpTPKNG-NH2 as substrate preincubated for 1 hr followed by substrate addition and measured after 1 hr by fluorescence polarization assay
Serine/threonine-protein kinase PLK3, sequence (Q9H4B4 whole entry): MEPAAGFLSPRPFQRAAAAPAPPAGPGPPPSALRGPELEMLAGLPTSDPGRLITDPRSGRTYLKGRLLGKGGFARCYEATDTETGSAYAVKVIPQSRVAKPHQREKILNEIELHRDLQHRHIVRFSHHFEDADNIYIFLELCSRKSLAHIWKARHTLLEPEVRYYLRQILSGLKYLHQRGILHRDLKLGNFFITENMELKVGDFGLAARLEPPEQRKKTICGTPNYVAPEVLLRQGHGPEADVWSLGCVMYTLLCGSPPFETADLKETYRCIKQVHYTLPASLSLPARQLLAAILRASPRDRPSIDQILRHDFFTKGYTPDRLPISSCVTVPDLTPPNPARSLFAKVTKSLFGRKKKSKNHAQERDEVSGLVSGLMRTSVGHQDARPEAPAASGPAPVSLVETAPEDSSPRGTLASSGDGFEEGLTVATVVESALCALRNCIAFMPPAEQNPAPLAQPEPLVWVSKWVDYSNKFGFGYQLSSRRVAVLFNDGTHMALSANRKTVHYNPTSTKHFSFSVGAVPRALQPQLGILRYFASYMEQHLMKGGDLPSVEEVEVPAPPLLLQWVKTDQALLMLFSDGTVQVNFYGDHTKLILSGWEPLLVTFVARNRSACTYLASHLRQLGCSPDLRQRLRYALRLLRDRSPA

[7] = target: T1, Serine/threonine-protein kinase PLK1; assay: Inhibition of human PLK1-PBD expressed in Escherichia coli BL21(DE3) rosetta cells using 5-carboxyfluorescein-GPMQSpTPLNG-OH as substrate preincubated for 1 hr followed by substrate addition and measured after 1 hr by fluorescence polarization assay
[8] = tested on: ADR5000 cell line; assay: Cytotoxicity against human CEM/ADR5000 cells assessed as reduction in cell viability incubated for 72 hrs by resazurin microplate assay; assay type: functional, cell-based; conditions: ADR5000, 72 h
[9] = target: Serine/threonine-protein kinase PLK2 (Homo sapiens, UniProt Q9NYY3); assay: Inhibition of recombinant C-terminal 6His-tagged human PLK2-PBD expressed in Escherichia coli BL21(DE3) rosetta cells using 5-carboxyfluorescein-GPMQTSpTPKNG-OH as substrate preincubated for 1 hr followed by substrate addition and measured after 1 hr by fluorescence polarization assay
Serine/threonine-protein kinase PLK2, sequence (Q9NYY3 whole entry): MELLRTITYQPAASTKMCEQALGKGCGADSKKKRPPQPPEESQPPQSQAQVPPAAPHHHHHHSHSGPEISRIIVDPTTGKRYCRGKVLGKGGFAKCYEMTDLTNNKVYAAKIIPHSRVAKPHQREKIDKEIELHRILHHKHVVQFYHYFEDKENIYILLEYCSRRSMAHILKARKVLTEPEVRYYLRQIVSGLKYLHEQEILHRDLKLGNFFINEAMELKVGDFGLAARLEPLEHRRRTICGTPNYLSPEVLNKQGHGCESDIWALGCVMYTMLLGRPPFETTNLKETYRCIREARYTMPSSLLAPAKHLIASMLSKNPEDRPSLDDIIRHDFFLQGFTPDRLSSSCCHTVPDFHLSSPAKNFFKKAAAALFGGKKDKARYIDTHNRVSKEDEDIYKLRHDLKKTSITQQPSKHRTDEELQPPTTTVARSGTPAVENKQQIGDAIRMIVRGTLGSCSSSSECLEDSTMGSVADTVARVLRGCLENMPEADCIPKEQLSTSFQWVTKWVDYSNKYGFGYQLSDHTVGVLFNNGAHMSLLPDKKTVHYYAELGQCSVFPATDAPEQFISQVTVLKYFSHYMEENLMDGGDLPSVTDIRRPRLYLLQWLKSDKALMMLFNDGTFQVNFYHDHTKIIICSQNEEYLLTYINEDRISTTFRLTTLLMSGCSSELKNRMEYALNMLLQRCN

[10] = tested on: CCRF-CEM; assay: Cytotoxicity against human CCRF-CEM cells assessed as reduction in cell viability incubated for 72 hrs by resazurin microplate assay; assay type: functional, cell-based
[11] = target: T1, Serine/threonine-protein kinase PLK1; assay: Inhibition of PLK1-PBD (unknown origin) using FITC-GPMQSpTPLNG-OH as substrate measured after 30 mins by Fluorescence polarization assay

`CC[C@@H]1C(=O)N(C)c2cnc(Nc3ccc(C(=O)NCCOCCOCCOCCNc4cccc5c4C(=O)N(C4CCC(=O)NC4=O)C5=O)cc3OC)nc2N1C1CCCC1` (stereo partly specified) showed an IC50 [1] of 0.00694 µM and an IC50 [2] of 0.00621 µM.

Work on `CCOC(=O)c1oc2ccccc2c1CBr` yielded a Kd [3] of 12.8 µM and an IC50 [4] of 16.4 µM.

`COc1cc2ncn(-c3cc(-c4cccc(C(F)(F)F)c4)c(C(N)=O)s3)c2cc1OC` was tested, and the IC50 [5] was 0.0022 µM.

`C[C@@]12CN(Cc3cccc(C#N)c3)C[C@@](C)(C1)c1c(-c3ccc4ccccc4c3)ccc(=O)n1C2` was tested, and the IC50 [6] was greater than 100 µM, the IC50 [7] was 17.9 µM and 95.5 µM and the IC50 [8] was 13.5 µM. The IC50 [9] was 95.5 µM and the IC50 [10] was 11.4 µM.

Work on `CC(CC(=O)N[C@H](C(=O)N[C@@H](CO)C(=O)N[C@H](C(N)=O)[C@@H](C)OP(=O)(O)O)c1cncs1)NC(=O)c1ccc(CO)cc1` (single isomer, unassigned) yielded an IC50 [11] of 0.267 µM.
